Test results from US12698507B2, “Methods and compositions for conferring and/or enhancing herbicide tolerance using protoporphyrinogen IX oxidase of various cyanobacteria or variant thereof” (FarmHannong Co., Ltd., priority 2019, dated 2026).
Like-named read-outs stand apart in the source and are kept apart here.

Assays:
[1] = biological target: Thermosynechococcus elongatus PKUAC-SCTE542 protoporphyrinogen IX oxidase CyPPO19 (SEQ ID NO: 1) variant A167C (MBP fusion) (Thermosynechococcus sichuanensis, UniProt A0A7D6JSC1, A167C); assay: biochemical
[2] = biological target: Thermosynechococcus elongatus PKUAC-SCTE542 protoporphyrinogen IX oxidase CyPPO19 (SEQ ID NO: 1) variant A167I (MBP fusion) (Thermosynechococcus sichuanensis, UniProt A0A7D6JSC1, A167I); assay: biochemical; conditions: 50 μM protoporphyrinogen IX, pH 7.5, room temperature, 30 min, 10,000 means equivalent to or higher, read-out: IC50
[3] = biological target: Thermosynechococcus elongatus PKUAC-SCTE542 protoporphyrinogen IX oxidase CyPPO19 (SEQ ID NO: 1) variant R89A (MBP fusion) (Thermosynechococcus sichuanensis, UniProt A0A7D6JSC1, R89A); assay: biochemical
[4] = biological target: T1, Thermosynechococcus elongatus PKUAC-SCTE542 protoporphyrinogen IX oxidase CyPPO19, wild type, SEQ ID NO: 1 (MBP fusion) (Thermosynechococcus sichuanensis, UniProt A0A7D6JSC1); assay: PPO enzyme inhibition assay (IC50 for herbicides), CyPPO19 wild type fused to MBP; type: biochemical
T1 sequence (A0A7D6JSC1 1-467): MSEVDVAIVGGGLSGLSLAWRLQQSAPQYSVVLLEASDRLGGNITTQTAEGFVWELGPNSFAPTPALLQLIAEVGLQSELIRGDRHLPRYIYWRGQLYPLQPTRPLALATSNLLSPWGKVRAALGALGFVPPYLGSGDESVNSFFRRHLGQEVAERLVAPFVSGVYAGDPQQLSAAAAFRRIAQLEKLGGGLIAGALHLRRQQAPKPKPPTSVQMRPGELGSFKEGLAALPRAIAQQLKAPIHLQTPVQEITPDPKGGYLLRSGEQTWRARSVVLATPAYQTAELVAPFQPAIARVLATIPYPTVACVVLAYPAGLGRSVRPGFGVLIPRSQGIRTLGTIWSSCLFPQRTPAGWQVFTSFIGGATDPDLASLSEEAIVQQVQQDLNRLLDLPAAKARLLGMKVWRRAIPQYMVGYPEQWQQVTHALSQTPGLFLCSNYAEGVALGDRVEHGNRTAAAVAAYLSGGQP

[5] = biological target: Thermosynechococcus elongatus PKUAC-SCTE542 protoporphyrinogen IX oxidase CyPPO19 (SEQ ID NO: 1) variant V165C (MBP fusion) (Thermosynechococcus sichuanensis, UniProt A0A7D6JSC1, V165C); assay: PPO enzyme inhibition assay (IC50 for herbicides), CyPPO19 V165C fused to MBP; type: biochemical
[6] = biological target: Thermosynechococcus elongatus PKUAC-SCTE542 protoporphyrinogen IX oxidase CyPPO19 (SEQ ID NO: 1) variant A167L (MBP fusion) (Thermosynechococcus sichuanensis, UniProt A0A7D6JSC1, A167L); assay: biochemical; conditions: 50 μM protoporphyrinogen IX, pH 7.5, room temperature, 30 min, 10,000 means equivalent to or higher, read-out: IC50
[7] = biological target: Thermosynechococcus elongatus PKUAC-SCTE542 protoporphyrinogen IX oxidase CyPPO19 (SEQ ID NO: 1) variant V165S (MBP fusion) (Thermosynechococcus sichuanensis, UniProt A0A7D6JSC1, V165S); assay: biochemical; conditions: 50 μM protoporphyrinogen IX, pH 7.5, room temperature, 30 min, 10,000 means equivalent to or higher, read-out: IC50
[8] = biological target: Thermosynechococcus elongatus PKUAC-SCTE542 protoporphyrinogen IX oxidase CyPPO19 (SEQ ID NO: 1) variant V305M (MBP fusion) (Thermosynechococcus sichuanensis, UniProt A0A7D6JSC1, V305M); assay: PPO enzyme inhibition assay (IC50 for herbicides), CyPPO19 V305M fused to MBP; type: biochemical
[9] = biological target: Thermosynechococcus elongatus PKUAC-SCTE542 protoporphyrinogen IX oxidase CyPPO19 (SEQ ID NO: 1) variant V305L (MBP fusion) (Thermosynechococcus sichuanensis, UniProt A0A7D6JSC1, V305L); assay: PPO enzyme inhibition assay (IC50 for herbicides), CyPPO19 V305L fused to MBP; type: biochemical
[10] = test system: wild type A. thaliana (Col-0); assay: Herbicide injury of wild type A. thaliana (Col-0) after spraying; type: in vivo, Arabidopsis thaliana; conditions: 1 μM tiafenacil and 0.05% Silwet L-77, within 7 days
[11] = test system: transgenic A. thaliana (T1) transformed with CyPPO19, CyPPO18 or variant genes; assay: Herbicide tolerance of transgenic A. thaliana (T1 plants); type: in vivo, Arabidopsis thaliana; conditions: 1 μM tiafenacil and 0.05% Silwet L-77
Excerpt: Transgenic plants were screened with glufosinate tolerance which was conferred by Bar gene expression in the binary vector. […] They were, then, transplanted into soil and grown to obtain T1 plants.

A. thaliana = assay: PPO-inhibiting herbicide tolerance test of transgenic A. thaliana (herbicide spray, injury index); type: in vivo, Arabidopsis thaliana; conditions: transgenic A. thaliana (T2), tiafenacil or flumioxazin spray

Chain of Thermosynechococcus elongatus PKUAC-SCTE542 protoporphyrinogen IX oxidase CyPPO19 (SEQ ID NO: 1) variant V305L (MBP fusion) (A0A7D6JSC1 entry or part of it V305L): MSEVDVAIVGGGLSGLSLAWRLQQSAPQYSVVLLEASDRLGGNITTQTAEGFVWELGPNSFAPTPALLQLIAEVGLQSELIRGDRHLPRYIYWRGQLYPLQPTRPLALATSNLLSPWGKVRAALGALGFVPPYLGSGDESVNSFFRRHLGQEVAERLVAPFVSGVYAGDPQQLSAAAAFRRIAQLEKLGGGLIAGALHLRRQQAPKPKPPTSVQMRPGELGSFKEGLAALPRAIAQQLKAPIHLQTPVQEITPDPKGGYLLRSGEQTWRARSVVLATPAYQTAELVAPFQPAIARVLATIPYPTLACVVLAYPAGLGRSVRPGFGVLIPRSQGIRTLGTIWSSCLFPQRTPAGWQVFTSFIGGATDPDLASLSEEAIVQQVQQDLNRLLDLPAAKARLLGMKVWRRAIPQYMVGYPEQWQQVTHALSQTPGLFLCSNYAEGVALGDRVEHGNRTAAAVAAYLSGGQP
Chain of Thermosynechococcus elongatus PKUAC-SCTE542 protoporphyrinogen IX oxidase CyPPO19 (SEQ ID NO: 1) variant A167I (MBP fusion) (A0A7D6JSC1 entry or part of it A167I): as the sequence (A0A7D6JSC1 entry or part of it V305L) above, with A167I, L305V counted along it
Chain of Thermosynechococcus elongatus PKUAC-SCTE542 protoporphyrinogen IX oxidase CyPPO19 (SEQ ID NO: 1) variant A167C (MBP fusion) (A0A7D6JSC1 entry or part of it A167C): as the sequence (A0A7D6JSC1 entry or part of it V305L) above, with A167C, L305V counted along it
Chain of Thermosynechococcus elongatus PKUAC-SCTE542 protoporphyrinogen IX oxidase CyPPO19 (SEQ ID NO: 1) variant V165C (MBP fusion) (A0A7D6JSC1 entry or part of it V165C): as the sequence (A0A7D6JSC1 entry or part of it V305L) above, with V165C, L305V counted along it
Chain of Thermosynechococcus elongatus PKUAC-SCTE542 protoporphyrinogen IX oxidase CyPPO19 (SEQ ID NO: 1) variant V165S (MBP fusion) (A0A7D6JSC1 entry or part of it V165S): as the sequence (A0A7D6JSC1 entry or part of it V305L) above, with V165S, L305V counted along it
Chain of Thermosynechococcus elongatus PKUAC-SCTE542 protoporphyrinogen IX oxidase CyPPO19 (SEQ ID NO: 1) variant A167L (MBP fusion) (A0A7D6JSC1 entry or part of it A167L): as the sequence (A0A7D6JSC1 entry or part of it V305L) above, with A167L, L305V counted along it
Chain of Thermosynechococcus elongatus PKUAC-SCTE542 protoporphyrinogen IX oxidase CyPPO19 (SEQ ID NO: 1) variant V305M (MBP fusion) (A0A7D6JSC1 entry or part of it V305M): as the sequence (A0A7D6JSC1 entry or part of it V305L) above, with L305M counted along it
Chain of Thermosynechococcus elongatus PKUAC-SCTE542 protoporphyrinogen IX oxidase CyPPO19 (SEQ ID NO: 1) variant R89A (MBP fusion) (A0A7D6JSC1 entry or part of it R89A): as the sequence (A0A7D6JSC1 entry or part of it V305L) above, with R89A, L305V counted along it

## CS(=O)(=O)NC(=O)c1cc(Oc2ccc(C(F)(F)F)cc2Cl)ccc1[N+](=O)[O-] [Fomesafen]
[1]
  IC50: 843 nM
[2]
  IC50: 899 nM
[3]
  IC50: 2360 nM
[4]
  IC50: 242 nM
[5]
  IC50: 330 nM
[6]
  IC50: 1760 nM
[7]
  IC50: 348 nM
[8]
  IC50: 257 nM
[9]
  IC50: 466 nM

## COC(=O)CCNC(=O)C(C)Sc1cc(-n2c(=O)cc(C(F)(F)F)n(C)c2=O)c(F)cc1Cl (stereo not shown) [Tiafenacil]
[1]
  IC50: 342 nM
[2]
  IC50: 248 nM
[3]
  IC50: 113 nM
[4]; CyPPO19 WT, 50 μM protoporphyrinogen IX, pH 7.5, room temperature, 30 min, read-out: IC50
  IC50: 67 nM
[10]
  survival after herbicide treatment: completely died within 7 days
[5]
  IC50: 186 nM
[6]
  IC50: 597 nM
[7]
  IC50: 269 nM
[11]
  survival after herbicide treatment: survived
[8]
  IC50: 392 nM
[9]
  IC50: 1140 nM

B1: CyPPO18 WT: PPO protein derived from Thermosynechococcus vulcanus NIES-2134 strain, SEQ ID NO: 3 (protein)
chain: MIEVDVAIVGGGLSGLSVAWRLQRSAPHYSGVLLEASDRLGGNITTQAAEGFVWELGPNSFAPTPALLQLIAEVGLHSELIRGDRHLPRYIYWRGELYPLEPTRPLALATSNLLSPWGKVRAALGALGFVPPYLGSGDESVDSFFRRHLGQEVAERLVAPFVSGVYAGDPQQLSAAAAFRRIAQLEKLGGSLIAGALRLRRQQPPQPKPPAQVQMRPGELGSFREGLAALPRAIAQQLKAPLHLQTPVEAITPEPKGGYLLRSGEQTWHARSVVLATPAYQSAELVAPFQPAIARALATIPYPTVACVVLAYPAGLGRSVRPGFGVLVPRGQGIRTLGTIWSSCLFPQRTPAGWQVFTSFIGGATDPDLASLREEAIVEQVQQDLTRLLDLPAAKARLLGMKVWRRAIPQYIVGYPQQWQQLTHALTQTPGLFLCSNYAEGVALGDRVEHGNRTAAAVAAYLAGGQS
modifications: Synthetic_PPO of Thermosynechococcus vulcanus NIES-2134 (BAY51976)
A. thaliana
  herbicide tolerance compared to non-transgenic plants: increased herbicide tolerance

B2: CyPPO19 WT: PPO protein derived from Thermosynechococcus elongatus PKUAC-SCTE542 strain, SEQ ID NO: 1 (protein)
chain: MSEVDVAIVGGGLSGLSLAWRLQQSAPQYSVVLLEASDRLGGNITTQTAEGFVWELGPNSFAPTPALLQLIAEVGLQSELIRGDRHLPRYIYWRGQLYPLQPTRPLALATSNLLSPWGKVRAALGALGFVPPYLGSGDESVNSFFRRHLGQEVAERLVAPFVSGVYAGDPQQLSAAAAFRRIAQLEKLGGGLIAGALHLRRQQAPKPKPPTSVQMRPGELGSFKEGLAALPRAIAQQLKAPIHLQTPVQEITPDPKGGYLLRSGEQTWRARSVVLATPAYQTAELVAPFQPAIARVLATIPYPTVACVVLAYPAGLGRSVRPGFGVLIPRSQGIRTLGTIWSSCLFPQRTPAGWQVFTSFIGGATDPDLASLSEEAIVQQVQQDLNRLLDLPAAKARLLGMKVWRRAIPQYMVGYPEQWQQVTHALSQTPGLFLCSNYAEGVALGDRVEHGNRTAAAVAAYLSGGQP
modifications: Synthetic_PPO of Thermosynechococcus elongatus PKUAC-SCTE542 (comprising GenBank No. CP032152.1)
A. thaliana
  herbicide tolerance compared to non-transgenic plants: increased herbicide tolerance
